Data reported in ChEMBL document CHEMBL2029201, “Synthesis of chalcone derivatives as potential anti-diabetic agents” (2012).

Each molecule was assayed on 3T3-L1 (assay: Antidiabetic activity in mouse 3T3L1 cells assessed as […] from cell culture medium using 450 mg/dL D-glucose at 30 ug/mL after 24 hrs (reference value: 310 +/- 4 mg/dl)).
Format: functional
With `O=C(/C=C/c1ccccc1)c1cc(Cl)ccc1O` the Activity was 236 mg/dL. In the case of `COc1ccc(/C=C/C(=O)c2ccccc2Cl)cc1`, the Activity is reported as 234 mg/dL. With `COc1ccc(/C=C/C(=O)c2cccc(Cl)c2)cc1` the Activity was 287 mg/dL. `COc1cccc(/C=C/C(=O)c2cccc(Cl)c2)c1` showed an Activity of 255 mg/dL. Molecule `COc1ccc(/C=C/C(=O)c2ccccc2Br)cc1` has an Activity of 230 mg/dL. With `O=C(/C=C/c1ccccc1)c1ccccc1I` the Activity was 223 mg/dL. `COc1ccc(/C=C/C(=O)c2ccccc2I)cc1` was tested, and the Activity was 210 mg/dL. `COc1cccc(/C=C/C(=O)c2ccccc2I)c1` gave an Activity of 210 mg/dL. `O=C(/C=C/c1cccc(OCc2ccccc2)c1)c1cccc(I)c1` gave an Activity of 238 mg/dL.
